Experimental data reported in paper PMC11325555, “Interaction of Bisphenol A and Its Analogs with Estrogen and Androgen Receptor from Atlantic Cod (Gadus morhua)” (Environmental Science & Technology, 2024).

Tests used:
[1] = target: T1, Atlantic cod estrogen receptor alpha (gmEra) LBD (Gadus morhua, UniProt U5ILH7); test: Luciferase reporter gene assay, gmEra agonism (estrogenic activity) in transfected COS-7 cells; settings: luciferase reporter gene assay
T1 sequence (U5ILH7 170-455): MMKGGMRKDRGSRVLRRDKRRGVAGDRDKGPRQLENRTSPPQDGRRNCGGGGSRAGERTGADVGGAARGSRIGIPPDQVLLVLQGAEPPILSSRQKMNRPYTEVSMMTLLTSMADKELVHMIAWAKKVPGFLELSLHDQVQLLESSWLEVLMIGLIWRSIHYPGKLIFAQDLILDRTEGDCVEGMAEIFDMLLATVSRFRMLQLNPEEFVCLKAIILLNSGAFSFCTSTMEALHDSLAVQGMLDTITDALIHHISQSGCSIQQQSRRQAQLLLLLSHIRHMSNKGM
Procedure: Ligand activation of gmEra and gmAra was studied with a luciferase reporter gene assay in COS-7 cells transiently transfected with the pCMX-GAL4(DBD)-gmEra(LBD) or pCMX-GAL4(DBD)-gmAra(LBD) plasmid by using the TransIT-LT1 reagent (TransIT-LT1 Transfection Reagent, Mirus). Cells were seeded into 96-well plates (5000 cells/well) and incubated for 24 h before cotransfection with the plasmid mixture (100 ng/well). The plasmid mixture contained GAL4-UAS luciferase reporter plasmid (tk-(MH100)x4 luc), the pCMX-GAL4(DBD)-gmEra(LBD) or pCMX-GAL4(DBD)-gmAra(LBD) receptor plasmids (2:1 reporter:receptor plasmid mass ratio), and a plasmid constitutively producing the β-galactosidase enzyme used for normalization of transfection efficiency (pCMV- β-Gal). […] The maximum DMSO/methanol concentrations in the exposure wells were 0.5% (v/v) in DMEM medium without phenol red (Sigma-Aldrich). After exposure, cells were lysed, and luciferase and beta-galactosidase activities were measured as luminescence and absorbance (420 nm) after the addition of luciferin and ONPG substrates, respectively, using an Enspire Multimode plate reader (PerkinElmer, Waltham, Massachusetts, USA).
Luciferase reporter gene assays were established with COS-7 cells transiently producing the LBD of gmEra (Figure S1) for evaluating the estrogenic potential of 12 bisphenols.
COS-7 cells transiently transfected with gmEra-LBD were exposed to EE2 (open circles), BPA (black circles), and 11 different BPA analogs (red squares and as indicated) at increasing concentrations. Responses are presented as mean fold activation in luciferase activity in comparison to solvent-exposed cells ± SEM from three independent experiments with three technical replicates (n = 9). The dose–response curves were created using nonlinear regression and the four parameter logistic fit in Graphpad Prism v.9. For comparison, the dose–response curve of BPA (black line) is indicated together with each individual BP tested (red line). *p < 0.05 versus solvent control by one-way ANOVA and Dunnett’s multiple comparison post hoc test.

[2] = test system: Er-mediated synthesis of Vtg in Atlantic cod PCLS; test: Vitellogenin ELISA in media of exposed precision-cut liver slices (PCLS); format: cell-based, Atlantic cod (Gadus morhua); settings: 96 h; for Vtg synthesis in PCLS, result in words: 1, 10, 100 μM bisphenols or 0.1, 1, 10 nM EE2, Vtg in media by ELISA
Procedure: PCLS culturing and exposure assays were performed essentially as described previously,[42],[56] with the modifications described below. Juvenile Atlantic cod were killed by a blow to the head, and the liver was dissected out and placed in a Petri dish containing ice-cold PCLS buffer (122 mM NaCl, 4.8 mM KCl, 1.2 mM MgSO4, 11 mM Na2HPO4, 3.7 mM NaHCO3, […]). The liver was then cut into small tissue blocks (approximately 3 cm long, 2 cm wide, and 1–3 cm high) and kept in ice-cold complete culture medium (L-15 medium supplemented with 10% FBS and 1× antibiotic-antimycotic solution). For slicing, the tissue block was fixed on the specimen plate of a Leica vibrating blade microtome VT1200 (Leica, Wetzlar, Germany) using Loctite Super Glue (Clas Ohlson, Bergen, Norway), and 250 μm thick tissue slices were cut (under ice-cold PCLS buffer) and kept in a Petri dish with ice-cold complete culture medium. Using a sterile razor blade, the tissue slices (2 × 3 cm) were then divided into smaller pieces (approximately 4 × 4 mm) and distributed into a 12-well cell culture plate (Sarstedt, Nümbrecht, Germany), each well containing 6 slices and 2 mL of complete culture medium. The PCLS were preincubated at 10 °C for 2 h before exposure. After preincubation, 1 mL of the medium was removed from each well and replaced by 1 mL of fresh complete culture medium containing 2x the final desired concentration and incubated at 10 °C for 96 h with shaking at 50 rpm. […] At the end of the exposure, slices were collected with tweezers and rinsed briefly in cold PBS. Excess PBS was removed by carefully touching a dry surface of the culture plate with the slice 4 times before measuring the weight in a preweighed cryotube. The slices were then snap-frozen in liquid N2 and stored at −80 °C. The media was also sampled and stored at −80 °C for viability (LDH) assay and vitellogenin ELISA.
Vitellogenin (Vtg) in media collected from exposed PCLS was quantified using the Atlantic Cod Vitellogenin ELISA kit (Biosense Laboratories AS, Bergen, Norway) according to manufacturer’s instructions. Vtg was quantified in 100 μL of undiluted media and normalized to the weight of the liver tissue. Statistical analysis of ELISA data was performed with GraphPad Prism Software version 9 (GraphPad Prism, La Jolla, CA, USA) by using one-way ANOVA followed by Dunnett’s test (for normally distributed data) or Friedman test followed by Dunn’s test (for non-normally distributed data), as described previously for PCLS experiments (Yadetie et al.[42]).
Figure 5 Relative vitellogenin production in Atlantic cod precision-cut liver slices (PCLS) exposed to bisphenols and EE2. PCLS were exposed to 1, 10, and 100 μM bisphenols or 0.1, 1, and 10 nM EE2, for 96 h. EE2 was included as positive control for activation of the gmEra signaling pathway. Levels of induced Vtg in the PCLS media were measured using ELISA (Cod Vitellogenin ELISA kit, Biosense Laboratories AS). The data represents mean ± SEM of fold change (compared to solvent control) of Vtg levels from 4 to 10 fish. n = 8–10 for all bisphenols except for BADGE (n = 4). Asterisks denote significant changes (p < 0.05) compared to solvent control.

SMILES | gmEra activation, result in words [1] | Vtg synthesis in PCLS, result in words [2] | concentration at which maximum Vtg levels were observed ([2]; 1, 10, 100 μM tested)
CC(C)(c1ccc(OCC2CO2)cc1)c1ccc(OCC2CO2)cc1 (centres unmarked) [BADGE] | did not activate gmEra | small, but significant, decrease in the Vtg synthesis | 
Oc1ccc(C2(c3ccc(O)cc3)c3ccccc3-c3ccccc32)cc1 [BPFL] | did not activate gmEra | only moderate and not statistically significant | 10 µM
